Experiments:
[1] = target: T1, PPARγ bound to DR2 PPRE of the LCT gene promoter (Homo sapiens, UniProt P37231); assay: Chromatin immunoprecipitation of PPARγ on the LCT gene promoter in Caco-2 cells; assay type: cell-based; conditions: 1 mM, 24 hours
T1 construct: Chromatin immunoprecipitation (ChIP) experiments in Caco-2 cells (5×10^6 cells) stimulated for 24 hours with 1 mM GED; endogenous in cells; host or cells: Caco-2 (colonic adenocarcinoma) cells
T1 sequence (P37231 1-505): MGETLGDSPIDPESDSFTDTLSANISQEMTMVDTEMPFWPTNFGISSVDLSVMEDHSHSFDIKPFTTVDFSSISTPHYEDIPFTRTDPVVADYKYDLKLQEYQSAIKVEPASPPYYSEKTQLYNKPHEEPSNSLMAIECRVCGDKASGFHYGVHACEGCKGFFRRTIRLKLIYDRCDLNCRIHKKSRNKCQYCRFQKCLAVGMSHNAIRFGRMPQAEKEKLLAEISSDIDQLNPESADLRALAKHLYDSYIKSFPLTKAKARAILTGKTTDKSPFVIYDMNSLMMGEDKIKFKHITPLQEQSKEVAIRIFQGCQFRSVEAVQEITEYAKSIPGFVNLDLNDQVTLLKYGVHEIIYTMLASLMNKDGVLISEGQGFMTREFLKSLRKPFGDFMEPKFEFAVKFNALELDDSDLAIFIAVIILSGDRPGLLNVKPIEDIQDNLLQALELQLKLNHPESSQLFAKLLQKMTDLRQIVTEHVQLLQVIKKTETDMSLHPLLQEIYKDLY
T1 sequence (P19793 1-462 partner): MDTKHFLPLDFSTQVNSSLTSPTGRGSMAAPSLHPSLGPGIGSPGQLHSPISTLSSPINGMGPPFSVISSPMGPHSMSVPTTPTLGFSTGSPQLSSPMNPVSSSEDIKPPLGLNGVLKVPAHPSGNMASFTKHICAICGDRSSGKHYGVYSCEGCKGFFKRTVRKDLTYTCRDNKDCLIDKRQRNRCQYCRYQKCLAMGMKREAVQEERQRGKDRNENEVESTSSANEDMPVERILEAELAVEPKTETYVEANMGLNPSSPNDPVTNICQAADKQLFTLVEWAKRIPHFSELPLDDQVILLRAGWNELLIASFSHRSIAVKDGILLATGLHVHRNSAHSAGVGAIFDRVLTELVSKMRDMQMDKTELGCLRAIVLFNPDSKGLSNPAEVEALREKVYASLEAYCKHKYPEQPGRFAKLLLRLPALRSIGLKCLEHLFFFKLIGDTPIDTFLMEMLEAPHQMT
Protocol: The physical binding of PPARγ onto the LCT gene promoter was studied by Chromatin immunoprecipitation (ChIP) experiments in Caco-2 cells (5×10^6 cells) stimulated for 24 hours with 1 mM GED in 100 mm cell culture petri dishes. Caco-2 cells were synchronized by the addition of serum-free medium for 16 hours and then stimulated for 24 hours using the protocol described previously. Cells were then rinsed with PBS and the protein-DNA complexes were fixed by adding 1% PFA for 30 minutes at room temperature. This binding was stopped by the addition of glycine (0.125M). Cells were collected by scraping in the presence of cold PBS and protease inhibitors (Sigma). The cell pellet obtained by centrifugation was taken up in 300 μl SDS buffer (1% SDS, 10 mM EDTA, 50 mM Tris-HCl pH 8, protease inhibitors) and sonicated (Diagenode, BioruptorUCD200TM-EX) for 30 seconds, followed by 30 seconds resting time. For each immunoprecipitation, 125 μL of crosslinked sonicated sample was diluted with 225 μl of IP buffer (1% triton X-100, 150 mM NaCl, 2 mM EDTA, 20 mM Tris-HCl pH 8.1 and protease inhibitors) and pre-cleared for four hours by adding 40 μL of protein A/G beads (50% slurry protein A/G Sepharose, Clinisciences) and 5 μg of salmon sperm DNA (Invitrogen). […] DNA was then purified using the PCR Clean-up kit (Macherey-Nagel) and analyzed by PCR.

[2] = tested on: weaned rats fed with a lactose-enriched diet; assay: Symptoms associated with lactose intolerance in weaned rats fed a lactose-enriched diet; assay type: in vivo; conditions: rats on lactose-enriched diet
Protocol: Animal experiments were performed in the accredited Pasteur Institute animal care facility (Institut Pasteur de Lille, France; n° B59-35009) according to governmental guidelines (n° 2010/63/UE; Décret 2013-118) and animal ethics committee approval. Specific pathogen-free male C57BL/6 mice and Sprague-Dawley rats were obtained from Janvier Labs (France). Mice and rats were housed 5 animals/cage and 3 animals/cage, respectively, in a specific pathogen-free facility, in an air-conditioned room with controlled temperature (22±1° C.), humidity (65-70%), and 12 h light/12 h dark cycles. Animals were fed with standard laboratory chow (except when indicated) and were provided with autoclaved tap water ad libitum. Animals were acclimatized for at least 1 week before entering the study.
In addition, the effect of GED on the symptoms associated with lactose intolerance was evaluated in weaned rats fed with a lactose-enriched diet provided by Ssniff Spezialdiäten GmbH (Soest, Germany). Animals were monitored daily, weighed, and stool consistencies were evaluated.
SCFA were extracted and measured as described in […], which is incorporated herein by reference.

SMILES: COC(Cc1ccc(N)cc1)C(=O)O (stereo not drawn) [GED, 3-(4′-aminophenyl)2-methoxypropionic acid]
- increase of the amount of PPARγ bound to the DR2 PPRE compared to unstimulated cells [1]: 2 fold
- concentration of short-chain fatty acids (SCFA) in caecal contents ([2]; day 4): significant decrease
- caecum volume compared to untreated rats ([2]; sacrificed at day 4, data not shown): significant decrease
